Test results taken from patent US20060153932A1, “Method of treating hyperphosphataemia using lanthanum hydroxycarbonate” (Shire Pharmaceuticals, Inc., priority 2004, published 2006).

Assays:
[1] = 4-week oral toxicity study in rats; details: 103 or 1030 mg lanthanum/kg/day for 4 weeks
Protocol: A study was conducted to assess the toxicity of lanthanum hydroxycarbonate. Rats were dosed orally with lanthanum hydroxycarbonate (103 or 1030 mg lanthanum/kg/day), lanthanum carbonate tetrahydrate (103 or 1030 mg lanthanum/kg/day) or vehicle for 4 weeks.

[2] = In vitro phosphorus binding of lanthanum compounds
Protocol: In order to evaluate the efficacy of lanthanum hydroxycarbonate as a phosphate binder, the in vitro phosphorus binding of lanthanum hydroxycarbonate and lanthanum carbonate tetrahydrate were measured using the methodology described below:
The equivalent of 1 g elemental lanthanum as either lanthanum hydroxycarbonate or as lanthanum carbonate tetrahydrate was added to 500 mL of 0.1N HCl at 37° C. and adjusted to pH 1 with HCl which contained 300 mg of phosphorus. The preparation was stirred and sampled at regular intervals. This sample was filtered and the filtrate measured for phosphorus content using a Sigma Diagnostics Kit for Inorganic Phosphorus determination. The loss of phosphorus from the filtrate represents the amount of phosphorus bound by lanthanum and precipitated then retained on the filter.

Structure (SMILES)	Plasma exposure to lanthanum [1]	rates of in vitro phosphate binding as compared to lanthanum carbonate tetrahydrate ([2]; dosed at the same level of elemental lanthanum)	more effective at binding phosphate in vitro, compared to lanthanum carbonate tetrahydrate ([2]; pH 1, same level of elemental lanthanum)
O.O.O.O.O=C([O-])[O-].O=C([O-])[O-].O=C([O-])[O-].[La+3].[La+3] [lanthanum carbonate tetrahydrate, Lanthanum carbonate tetrahydrate]	similar		
O=C([O-])[O-].[La+3].[OH-] [lanthanum hydroxycarbonate]		improved rates of in vitro phosphate binding	approximately 50%
